The target in the test is T1, ZAP-70 (Homo sapiens, UniProt P43403).
T1 sequence (P43403 1-619): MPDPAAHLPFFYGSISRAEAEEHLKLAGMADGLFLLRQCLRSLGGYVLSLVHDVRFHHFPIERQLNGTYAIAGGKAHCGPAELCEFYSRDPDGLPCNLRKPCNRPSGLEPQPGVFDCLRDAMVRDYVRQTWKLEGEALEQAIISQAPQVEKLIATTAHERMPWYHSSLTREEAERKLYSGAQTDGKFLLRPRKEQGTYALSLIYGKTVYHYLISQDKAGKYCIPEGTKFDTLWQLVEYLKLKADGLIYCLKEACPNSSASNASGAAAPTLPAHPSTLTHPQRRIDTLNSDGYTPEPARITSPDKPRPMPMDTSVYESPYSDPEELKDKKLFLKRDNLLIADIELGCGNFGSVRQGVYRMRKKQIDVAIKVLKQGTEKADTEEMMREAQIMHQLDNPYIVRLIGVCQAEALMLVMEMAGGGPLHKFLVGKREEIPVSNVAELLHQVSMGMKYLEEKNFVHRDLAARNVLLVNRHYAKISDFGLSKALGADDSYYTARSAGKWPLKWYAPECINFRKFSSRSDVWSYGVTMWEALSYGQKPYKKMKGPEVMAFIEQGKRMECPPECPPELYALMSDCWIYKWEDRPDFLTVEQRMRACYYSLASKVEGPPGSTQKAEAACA
Kind of test: DELFIA assay (ZAP-70 kinase, phosphorylation of biotinylated poly(glu,tyr)). The format is biochemical. The conditions noted are these: ZAP-70 DELFIA, class symbols; read-out: Activity (IC50 in vitro). On the procedure:
Before initiation of kinase reactions, compounds were pre-incubated with ZAP-70. Pre-incubation reactions contained 62.5 mM Mops pH 7.0, 12.5 mM MgCl2, 12.5% glycerol, 3.1 nM ZAP-70, 62.5 nM biotinylated poly(glu,Tyr), 0.1 mg/ml BSA, 6.25% DMSO and […] compound in a total volume of […]. After a 10 minute room temperature incubation, 10 ml of 5 mM ATP was added to start the reaction. Reactions were incubated at room temperature for 30 minutes then terminated by addition of 5 ml 500 mM EDTA. The amount of phosphate transferred to biotinylated poly(glu,tyr) was measured using the Dissociation Enhanced Lanthanide Fluorescence Immuno-assay (DELFIA) from Perkin Elmer according to manufacturers protocol. Briefly, biotinylated […] was captured on streptavidin coated plates, washed twice, then incubated with Europium labeled-anti-phosphotyrosine antibody. Free antibody was removed with six washes, Europium was dissociated from the antibody, and Europium fluorescence was measured at using an excitation wavelength of 340 nm and an emission wavelength of 615 nm.

The pIC50 is the negative decadic logarithm of the IC50, by convention in mol/L.

pIC50: −log10 of the molar value. Some results are limits rather than exact numbers.

Take `CC(CNc1cc(C(=O)N2CCC[C@H]2CN2CCCC2)c2cc(-c3ccc4c(c3)OCO4)ccc2n1)c1ccccc1` (some centres unmarked) [Compound 54]: the pIC50 was greater than 6.00.
For the molecule `O=C(c1cc(NCC(O)c2ccccc2)nc2ccc(-c3ccc4c(c3)OCO4)cc12)N1CCC[C@H]1CN1CCCC1` (some centres unmarked) [Compound 55], the pIC50 was greater than 6.00.
As for `O=C(c1cc(Nc2ccc3ncsc3c2)nc2ccc(-c3ccc4c(c3)OCO4)cc12)N1CCC[C@H]1CN1CCCC1` [Compound 56], the pIC50 is greater than 6.00.
On to `O=C(c1cc(Nc2ccc3cn[nH]c3c2)nc2ccc(-c3ccc4c(c3)OCO4)cc12)N1CCC[C@H]1CN1CCCC1` [Compound 57], for which the pIC50 was greater than 6.00.
For the molecule `CC(=O)N1CCN(c2cc(C(=O)N3CCC[C@H]3CN3CCCC3)c3cc(-c4ccc5c(c4)OCO5)ccc3n2)CC1` [Compound 58], the pIC50 is 5.00 to 6.00.
Regarding `CN(C)c1cc(C(=O)N2CCC[C@H]2CN2CCCC2)c2cc(-c3ccc4c(c3)OCO4)ccc2n1` [Compound 59], the pIC50 was 5.00 to 6.00.
`CN1CCC(N(C)c2cc(C(=O)N3CCC[C@H]3CN3CCCC3)c3cc(-c4ccc5c(c4)OCO5)ccc3n2)CC1` [Compound 60]: the pIC50 was greater than 6.00.
As for `CN1CCN(c2cc(C(=O)N3CCC[C@H]3CN3CCCC3)c3cc(-c4ccc5c(c4)OCO5)ccc3n2)CC1` [Compound 61], the pIC50 is 5.00 to 6.00.
`O=C(c1cc(N2CCOCC2)nc2ccc(-c3ccc4c(c3)OCO4)cc12)N1CCC[C@H]1CN1CCCC1` [Compound 62]: the pIC50 was 5.00 to 6.00.
As to `O=C(c1cc(N2CCCC2)nc2ccc(-c3ccc4c(c3)OCO4)cc12)N1CCC[C@H]1CN1CCCC1` [Compound 63], the pIC50 was 5.00 to 6.00.
In the case of `O=C(c1cc(N2CCC(N3CCCC3)CC2)nc2ccc(-c3ccc4c(c3)OCO4)cc12)N1CCC[C@H]1CN1CCCC1` [Compound 64], the pIC50 is 5.00 to 6.00.
For `O=C(c1cc(N2CCc3ccccc3C2)nc2ccc(-c3ccc4c(c3)OCO4)cc12)N1CCC[C@H]1CN1CCCC1` [Compound 65] the value was greater than 6.00.
For the molecule `CN(CCC#N)c1cc(C(=O)N2CCC[C@H]2CN2CCCC2)c2cc(-c3ccc4c(c3)OCO4)ccc2n1` [Compound 66], the negative-log IC50 (pIC50) is 5.00 to 6.00.
As for `CN(C)CCN(C)c1cc(C(=O)N2CCC[C@H]2CN2CCCC2)c2cc(-c3ccc4c(c3)OCO4)ccc2n1` [Compound 67], the figure is less than 5.00.
As for `CCN(Cc1ccccc1)c1cc(C(=O)N2CCC[C@H]2CN2CCCC2)c2cc(-c3ccc4c(c3)OCO4)ccc2n1` [Compound 68], the figure is greater than 6.00; as for `CC(=O)N[C@H]1CCN(c2cc(C(=O)N3CCC[C@H]3CN3CCCC3)c3cc(-c4ccc5c(c4)OCO5)ccc3n2)C1` [Compound 69], less than 5.00; as for `CN(c1cc(C(=O)N2CCC[C@H]2CN2CCCC2)c2cc(-c3ccc4c(c3)OCO4)ccc2n1)C1CCCCC1` [Compound 70], greater than 6.00.
As to `CC(=O)NCCNc1cc(C(=O)N2CCC[C@H]2CN2CCCC2)c2cc(-c3ccc4c(c3)OCO4)ccc2n1` [Compound 71], the pIC50 is less than 5.00.
`CCN(CCOC)c1cc(C(=O)N2CCC[C@H]2CN2CCCC2)c2cc(-c3ccc4c(c3)OCO4)ccc2n1` [Compound 72]: the pIC50 is 5.00 to 6.00.
For the molecule `COCCN1CCN(c2cc(C(=O)N3CCC[C@H]3CN3CCCC3)c3cc(-c4ccc5c(c4)OCO5)ccc3n2)CC1` [Compound 73], the negative-log IC50 (pIC50) is 5.00 to 6.00.
For `CN(CCO)c1cc(C(=O)N2CCC[C@H]2CN2CCCC2)c2cc(-c3ccc4c(c3)OCO4)ccc2n1` [Compound 74], the pIC50 is 5.00 to 6.00.
On to `CN(C)[C@@H]1CCN(c2cc(C(=O)N3CCC[C@H]3CN3CCCC3)c3cc(-c4ccc5c(c4)OCO5)ccc3n2)C1` [Compound 75], for which the negative-log IC50 (pIC50) is 5.00 to 6.00.
On to `O=C(c1cc(N(CCO)Cc2ccccc2)nc2ccc(-c3ccc4c(c3)OCO4)cc12)N1CCC[C@H]1CN1CCCC1` [Compound 76], for which the pIC50 was greater than 6.00.
For `CN(Cc1ccc(Cl)c(Cl)c1)c1cc(C(=O)N2CCC[C@H]2CN2CCCC2)c2cc(-c3ccc4c(c3)OCO4)ccc2n1` [Compound 77], the pIC50 is greater than 6.00.
For `CN(c1ccccn1)c1cc(C(=O)N2CCC[C@H]2CN2CCCC2)c2cc(-c3ccc4c(c3)OCO4)ccc2n1` [Compound 78], the pIC50 was 5.00 to 6.00.
As for `O=C(c1cc(N2CCN(C3CCCC3)CC2)nc2ccc(-c3ccc4c(c3)OCO4)cc12)N1CCC[C@H]1CN1CCCC1` [Compound 79], the negative-log IC50 (pIC50) is 5.00 to 6.00.
Consider `O=C(c1cc(NCc2ccccc2)nc2ccc(-c3ccc4c(c3)OCO4)cc12)N1CCC[C@H]1CO` [Compound 80], for which the pIC50 is less than 5.00.
For `CCN(CC)C[C@@H]1CCCN1C(=O)c1cc(NCc2ccccc2)nc2ccc(-c3ccc4c(c3)OCO4)cc12` [Compound 81] the value was 5.00 to 6.00; for `O=C(c1cc(NCc2ccccc2)nc2ccc(-c3ccc4c(c3)OCO4)cc12)N1CCC[C@H]1CN1CCCCC1` [Compound 82], 5.00 to 6.00; for `O=C(c1cc(NCc2ccccc2)nc2ccc(-c3ccc4c(c3)OCO4)cc12)N1CCC[C@H]1CN1CCOCC1` [Compound 83], 5.00 to 6.00.
For `CC(C)N(C)C[C@@H]1CCCN1C(=O)c1cc(NCc2ccccc2)nc2ccc(-c3ccc4c(c3)OCO4)cc12` [Compound 84] the value was less than 5.00.
As for `O=C(Nc1ccc2cn[nH]c2c1)c1cc(NCc2ccccc2)nc2ccc(-c3ccc4c(c3)OCO4)cc12` [Compound 85], the figure is 5.00 to 6.00.
As for `O=C(Nc1ccc2[nH]ncc2c1)c1cc(NCc2ccccc2)nc2ccc(-c3ccc4c(c3)OCO4)cc12` [Compound 86], the negative-log IC50 (pIC50) was 5.00 to 6.00.
As for `O=C(Nc1ccc2cn[nH]c2c1)c1cc(NCc2ccc(C(F)(F)F)cc2)nc2ccc(-c3ccc4c(c3)OCO4)cc12` [Compound 87], the figure is less than 5.00; as for `O=C(Nc1ccc2[nH]ncc2c1)c1cc(NCc2ccc(C(F)(F)F)cc2)nc2ccc(-c3ccc4c(c3)OCO4)cc12` [Compound 88], less than 5.00; as for `O=C(c1cc(N2CCC[C@H]2CN2CCCC2)nc2ccc(-c3ccc4c(c3)OCO4)cc12)N1CCC[C@H]1CN1CCCC1` [Compound 89], 5.00 to 6.00.
For `O=C(c1cc(N2CCC(O)CC2)nc2ccc(-c3ccc4c(c3)OCO4)cc12)N1CCC[C@H]1CN1CCCC1` [Compound 90] the value was 5.00 to 6.00; for `O=C(c1cc(N2CCC[C@@H]2CO)nc2ccc(-c3ccc4c(c3)OCO4)cc12)N1CCC[C@H]1CN1CCCC1` [Compound 91], greater than 6.00.
`O=C(c1cc(N2CCCc3ccccc32)nc2ccc(-c3ccc4c(c3)OCO4)cc12)N1CCC[C@H]1CN1CCCC1` [Compound 92]: the pIC50 was greater than 6.00.
As for `Clc1cc(CN2CCC[C@H]2CN2CCCC2)c2cc(-c3ccc4c(c3)OCO4)ccc2n1` [Compound 93], the pIC50 is less than 5.00.
As for `FC(F)(F)c1ccc(CNc2cc(CN3CCC[C@H]3CN3CCCC3)c3cc(-c4ccc5c(c4)OCO5)ccc3n2)cc1` [Compound 94], the figure is 5.00 to 6.00; as for `O=C(c1cc(-c2ccc(F)c(Cl)c2)nc2ccc(-c3ccc(F)c(Cl)c3)cc12)N1CCC[C@H]1CN1CCCC1` [Compound 95], 5.00 to 6.00; as for `N#Cc1cccc(-c2ccc3nc(-c4cccc(C#N)c4)cc(C(=O)N4CCC[C@H]4CN4CCCC4)c3c2)c1` [Compound 96], 5.00 to 6.00.
For `O=C(c1cc(-c2ccc(Cl)c(Cl)c2)nc2ccc(-c3ccc(Cl)c(Cl)c3)cc12)N1CCC[C@H]1CN1CCCC1` [Compound 97], the pIC50 is 5.00 to 6.00.
